PubChem BioAssay (NCI)
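Tested at 5 concentrations; 48 h exposure; 96-well plates; endpoints linearly interpolated, else capped at highest concentration. The concentration for full growth arrest is given as TGI.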

Legend:
Test in all cases: DTP human tumour cell line panel, 48 h
SNB-19 CNS = test system: SNB-19 CNS
NCI-H522 lung = test system: NCI-H522 lung
HL-60(TB) leukemia = test system: HL-60(TB) leukemia
MOLT-4 leukemia = test system: MOLT-4 leukemia
SK-MEL-28 melanoma = test system: SK-MEL-28 melanoma
UO-31 renal = test system: UO-31 renal
SK-MEL-2 melanoma = test system: SK-MEL-2 melanoma
A549 NSCLC = test system: A549 NSCLC
T-47D breast = test system: T-47D breast
HS 578T breast = test system: HS 578T breast
NCI/ADR-RES ovarian = test system: NCI/ADR-RES ovarian
MDA-N = test system: MDA-N
DU-145 prostate = test system: DU-145 prostate
MCF7 breast = test system: MCF7 breast

SMILES | TGI (SNB-19 CNS) [µM] | TGI (NCI-H522 lung) [µM] | TGI (HL-60(TB) leukemia) [µM] | TGI (MOLT-4 leukemia) [µM] | TGI (SK-MEL-28 melanoma) [µM] | TGI (UO-31 renal) [µM] | TGI (SK-MEL-2 melanoma) [µM] | TGI (A549 NSCLC) [µM] | TGI (T-47D breast) [µM] | TGI (HS 578T breast) [µM] | TGI (NCI/ADR-RES ovarian) [µM] | TGI (MDA-N) [µM] | TGI (DU-145 prostate) [µM] | TGI (MCF7 breast) [µM]
Cc1nccc2c1cnc1ccnn12 | > 100 | > 100 | > 100 | > 100 | > 100 | > 100 | > 100 | > 100 |  |  |  |  |  | 
CCOC(=O)c1nnsc1NC(=O)Nc1ccc(Cl)cc1 | > 100 | 50.1 |  | > 100 | > 100 | > 100 | > 100 | > 100 | > 100 | > 100 | 72.5 | > 100 | > 100 | 
NC1=NC2(O)c3ccccc3C(=O)C2(O)N1 (stereo not drawn) | > 100 | > 100 | > 100 | > 100 | > 100 |  | > 100 | > 100 |  |  |  |  |  | 
NC1=CC(C(=O)c2ccncc2)c2nc3ccccc3nc21 (stereo not drawn) | > 100 | > 100 |  | > 100 | > 100 | > 100 | > 100 | > 100 | > 100 | > 100 | > 100 | > 100 | > 100 | > 100
C[C@H]1C(OCCOC2O[C@@H]3O[C@@]4(C)CC[C@H]5[C@H](C)CCC([C@H]2C)[C@@]35O4)O[C@@H]2O[C@@]3(C)CC[C@H]4[C@H](C)CCC1[C@@]24O3 (stereo partly drawn) | > 100 |  | 74.9 | > 100 | > 100 |  | 42.3 | > 100 | 37.5 |  | > 100 | > 100 | 74.3 | > 100
COC(=O)C(/C(=N/N)C(=O)Nc1cc(Cl)c(Cl)cc1Cl)c1nc2ccc(Cl)cc2[nH]c1=O (stereo not drawn) |  | > 100 | > 100 |  | > 100 | > 100 | > 100 | > 100 | > 100 | > 100 | > 100 | > 100 |  | > 100
O=C1C(Cl)C(c2ccc(Cl)cc2)N1n1cnc2ccccc2c1=O (stereo not drawn) | > 100 | > 100 | > 100 | > 100 | > 100 | > 100 | > 100 | > 100 |  |  |  |  |  | 
O=C(O)c1cc(-c2ccccc2O)nc2ccccc12 | > 100 | > 100 |  | > 100 | > 100 | > 100 | > 100 | > 100 |  |  |  |  |  | 
CC1(C)[C@@H]2C[C@H]1C(Cc1ccc(C[C@H]3c4cc(-c5ccccn5)ncc4[C@H]4C[C@@H]3C4(C)C)cc1)c1cc(-c3ccccn3)ncc12 (stereo partly drawn) | > 100 | > 100 | 2.28 |  | 79.7 | 4.91 | > 100 | 87.9 | > 100 | > 100 | 22.2 |  | > 100 | > 100
CCOC(OCC)c1ccc(/C=C/c2cc(OC)c(OC)c(OC)c2)cc1 | > 100 | > 100 | 30.1 |  | 56.7 | 45.7 |  | 95.2 |  |  |  |  |  | 
CC(=N/NC(=S)Nc1c(C)n(C)n(-c2ccccc2)c1=O)/C(C)=N\NC(=S)Nc1c(C)n(C)n(-c2ccccc2)c1=O | > 100 | > 100 | > 100 | > 100 |  | > 100 | > 100 | > 100 | > 100 | > 100 | > 100 |  | > 100 | 
C#CCCOC1(OC)N=NC(C)(C)O1 (stereo not drawn) | > 100 | > 100 | > 100 | > 100 | > 100 | > 100 | > 100 | > 100 | > 100 | > 100 | > 100 | > 100 | > 100 | 
COc1cccc(/C(C=O)=C(\Cl)c2ccc(OC)c(OC)c2)c1 | 16.3 | 22.1 | 20.7 | 42.5 | 29 | 28.2 | 42.8 | 46.8 |  |  |  |  |  | 
O=C(/C=C/c1c(O)ccc2ccccc12)c1cccc2ccccc12 | > 100 | > 100 | > 63.7 | > 100 | > 100 | > 100 | > 100 | > 100 |  |  |  |  |  | 
O=c1cc(NCC2CCCCC2)[nH]c(=O)[nH]1 | > 100 |  | > 100 |  | > 100 | > 100 |  | > 100 |  | > 100 | > 100 | > 100 | > 100 | > 100
COc1ccc(OC)c(NC(=O)C(=O)Nn2c(=S)[nH]c3ccccc3c2=O)c1 | > 100 | > 100 | > 100 | > 100 | > 100 | > 100 | > 100 | > 100 | > 100 | > 100 | > 100 | > 100 |  | > 100
CO/C(=N\N=C\c1ccc(OC)cc1OC)c1ccncc1 | > 10 |  | > 10 | > 10 | > 10 | > 10 | > 10 | > 10 | > 10 |  | > 10 |  |  | > 10
CCOC(=O)c1nc2ccc(Cl)cc2c2c1CCO2 | > 100 | > 100 | > 100 | > 100 | > 100 |  |  | > 100 |  |  |  |  |  | 
NC(=O)C(=CN1C(=O)CC(=O)NC1=S)C(N)=O | > 100 |  | > 100 | > 100 | > 100 | > 100 | > 100 | > 100 | > 100 |  | > 100 |  | > 100 | > 100
Cc1cc(NC(=O)C(=O)Cc2cnc3ccccc3n2)c(S(=O)(=O)O)cc1Cl | > 100 | > 100 | > 100 | > 100 | > 100 | > 100 | > 100 | > 100 | > 100 | > 100 | > 100 |  | > 100 | > 100
